Measurements: patent publication US3959300A, “Novel indolobenzazepine derivatives, useful as tranquilizers” (priority 1974, dated 1976)

Columns and labels:
Assay type in all cases: in vivo
locomotor activity = assay: Mouse Screen (decrease in locomotor activity); details: po, mouse, lowest dose producing obvious decrease in locomotor activity; for minimal effective dose: read-out: Screen (mouse) MED
Source text: (§1) Results given in: mg/kg po/mouse
Mouse Screen: The minimal effective dose (MED) is the lowest oral dose producing an obvious decrease in locomotor activity, using observational techniques. Groups of 3 mice are given decreasing oral doses at 0.5 log intervals (300, 100, 30 . . . etc.) until no behavioral effects are evident. Decrease of locomotor activity is indicative of general central nervous system depressant activity.

[1] = system: amphetamine hyperactivity; assay: Mouse Anti-Amphetamine Activity (A.A.); details: po, mouse, d-amphetamine sulfate 5 mg/kg sc 1 hour after compound, 60 minutes recording; for ED50: read-out: A.A. (mouse) ED50
Description: as §1
Mouse Anti-Amphetamine Activity: Groups of 5 mice are given d-amphetamine sulfate 5 mg/kg sc 1 hour after oral administration of graded doses of test compound. The mice are placed in photocell activity units immediately after amphetamine administration and locomotor activity is recorded for 60 minutes. The ED50 is calculated as the dose causing a 50% reduction in locomotor activity relative to the activity of the amphetamine-treated control mice. Amphetamine antagonism at non-toxic doses appears to correlate with major tranquilizer activity in man.

taming = assay: Rhesus Monkey Taming Effects; details: po, rhesus monkey; for minimal effective dose: Macaca mulatta, read-out: Taming (monkey) MED
Description: Results given in: mg/kg po/monkey
Rhesus Monkey Taming Effects: Compounds are administered orally to groups of six rhesus monkeys. The behavior of the animals is then evaluated by observational means. Taming effects are determined by the ability of the observer to approach and touch the monkey. Compounds with major tranquilizer activity in man can produce a state of passive tameness in the rhesus monkey wherein it can be touched without provoking any of the threatening or aggressive behavior seen in the normal animal. The MED is the minimal oral dose at which some taming effect can be observed.

[2] = system: Conditioned Avoidance Response; assay: Mouse Conditioned Avoidance Response (C.A.R.); details: po, mouse, tested 1, 2, and 4 hours after administration; for ED50: read-out: C.A.R. (mouse) ED50
Description: (§2) Results given in: mg/kg po/mouse mg/kg po/rat
(§3) Mouse and Rat Conditioned Avoidance Response: Mice and rats are trained to jump out of a pit onto a ledge to avoid shock when presented with a light and sound conditioned stimulus. The animals are tested 1, 2, and 4 hours after administration of the test compound. Three to 4 dose levels and groups of 4-8 animals/dose are used. The ED50 is the dose producing a block of the C.A.R. in 50% of the animals. Blocking of the C.A.R. at non-toxic doses appears to correlate with major tranquilizer activity in man.

[3] = system: approach-avoidance ("conflict") situation; assay: Rat Conflict (Approach-Avoidance) Test; details: for Conflict (rat) MED / minimal effective dose: po, reexposed after 1 or 2 hours, rat; for minimal effective dose: read-out: Conflict (rat) MED
Description: Results given in: mg/kg po/rat
Rat Conflict (Approach-Avoidance) Test: Food deprived rats are trained to pass from one compartment to an adjacent one to obtain food. The training consists of three exposures to the test situation on day one of the experiment. The rats are given limited (1-2 hr) free access to food in their home cages on day one and are then food deprived for at least 18 hours. On day two of the experiment, the rats are given a control exposure to the test situation followed by a second exposure after 1/2 to 1 hour in which they are shocked after crossing and eating. Groups of 6-8 rats are then dosed orally with solvent or test compound and then reexposed to the test situation after 1 or 2 hours.
This effect is dose-related (and the MED is the minimum dose at which this effect is obtained); rats dosed with solvent only consistently show a high level of fear as evidenced by decreased mobility and absence of feeding when placed in the test situation after receiving a shock.

[4] = system: Conditioned Avoidance Response; assay: Rat Conditioned Avoidance Response (C.A.R.); details: po, rat, tested 1, 2, and 4 hours after administration; for ED50: read-out: C.A.R. (rat) ED50
Description: as §2, §3

[5] = system: Conditioned Avoidance Response; assay: Dog Conditioned Avoidance Response (C.A.R.); details: po, dog, 1, 2, and 4 hours after administration; for ED50: Canis lupus familiaris, read-out: C.A.R. (dog) ED50
Description: Results given in: mg/kg po/dog
Dog Conditioned Avoidance Response: Dogs are trained to raise a forelimb when presented with a conditioned stimulus (light) in order to avoid an electric shock. Blocks of 10 trials are given to groups of four dogs during a pretreatment period and at 1, 2, and 4 hours after oral administration of test compound. The ED50 values are calculated as the dose causing 50% of the animals to show five or more incorrect responses. Blocking of the C.A.R. at non-toxic doses appears to correlate with major tranquilizer activity in man.

Row | Compound | Screen (mouse) MED (locomotor activity) [mg/kg] | A.A. (mouse) ED50 [1] [mg/kg] | Taming (monkey) MED (taming) [mg/kg] | C.A.R. (mouse) ED50 [2] [mg/kg] | Conflict (rat) MED [3] [mg/kg] | further results
1 | 1,2,3,4,8,9-hexahydro-3-[(4-methylbicyclo[2.2.2]oct-1-yl)methyl]pyrido[4',3':2,3]indolo[1,7-ab][1]benzazepine hydrochloride [Example 15] | 10 to 30 | 3 to 10 | > 10 | 10 to 30 | – | –
2 | 1,2,3,4,8,9-hexahydro-3-[(4-methylbicyclo[2.2.2]oct-2-en-1-yl)methyl]pyrido[4', 3':2,3]indolo[1,7-ab][1]benzazepine hydrochloride [Example 16] | 100 to 300 | 60 | 20 | 30 to 60 | 10 to 20 | C.A.R. (rat) ED50 [4]: 30 mg/kg; C.A.R. (dog) ED50 [5]: > 10 mg/kg
3 | 1,2,3,4,8,9-hexahydro-3-[(trans-2-methylcyclopropyl)methyl]pyrido[4',3':2,3]indolo[1,7-ab][1]benzazepine hydrochloride [No. 4] | 10 to 30 | 6 | 3 to 10 | 20 | > 40 | –
4 | 1,2,3,4,8,9-hexahydropyrido[4', 3':2,3] indolo[1,7-ab][1]benzazepine [Example 1] | 10 to 30 | 10 | 20 to 30 | > 40 | > 40 | C.A.R. (rat) ED50 [4]: > 40 mg/kg
5 | 3-(1-adamantylmethyl)-1,2,3,4,8,9-hexahydropyrido[4',3':2,3]indolo[1,7-ab][1]benzazepine hydrochloride [No. 11] | 3 to 10 | 1 | 1 to 3 | 1 to 3 | > 40 | C.A.R. (rat) ED50 [4]: 6 mg/kg
6 | 3-(1-cyclopropylethyl)-1,2,3,4,8,9-hexahydropyrido[4',3':2,3]indolo[1,7-ab][1]benzazepine hydrochloride [Example 20] | 30 to 100 | – | – | – | – | –
7 | 3-(2-adamantylmethyl)-1,2,3,4,8,9-hexahydropyrido[4',3':2,3]indolo[1,7-ab][1]benzazepine hydrochloride [Example 11] | 100 to 300 | > 100 | – | 30 | – | C.A.R. (rat) ED50 [4]: > 40 mg/kg
8 | 3-(2-butynyl)-1,2,3,4,8,9-hexahydropyrido[4',3':2,3]indolo[1,7-ab][1]benzazepine hydrochloride [No. 20] | 10 to 30 | 6 | 1 to 3 | 10 to 30 | > 40 | C.A.R. (dog) ED50 [5]: > 40 mg/kg
9 | 3-(exo-7-norcarylmethyl)-1,2,3,4,8,9-hexahydropyrido[4',3':2,3]indolo[1,7- ab][1]benzazepine hydrochloride [No. 10] | 10 to 30 | 3 to 10 | 10 | 10 to 30 | – | –
10 | 3-[(2,3-dimethyl-2-cyclopropen-1-yl)methyl]-1,2,3,4,8,9-hexahydropyrido[4',3':2,3]indolo[1,7-ab][1]benzazepine hydrochloride [No. 12] | 10 to 30 | – | – | – | – | –
11 | 3-[(3-cyclohexen-1-yl)methyl]-1,2,3,4,8,9-hexahydropyrido[4',3':2,3]indolo[1,7-ab][1]benzazepine hydrochloride [No. 9] | 3 to 10 | 5 | – | – | – | –
12 | 3-[(cis,cis-2,3-dimethylcyclopropyl)methyl]-1,2,3,4,8,9-hexahydropyrido[4',3':2,3]indolo[1,7-ab][1]benzazepine hydrochloride [No. 14] | 10 to 30 | 20 | > 20 | 20 | – | –
13 | 3-[cis-1,6-dimethyl-endo-3-norcaren-7-yl)methyl]-1,2,3,4,8,9-hexahydropyrido[4',3':2,3]indolo[1,7-ab][1]benzazepine [No. 13] | 1 to 3 | – | – | – | – | –
14 | 3-isobutyl-1,2,3,4,8,9-hexahydropyrido-[4', 3':2,3]indolo[1,7-ab ][1]benzazepine hydrochloride [No. 1, reference compound] | 100 to 300 | > 100 | > 20 | – | > 40 | C.A.R. (rat) ED50 [4]: > 40 mg/kg
15 | CC1(CN2CCc3c(c4cccc5c4n3-c3ccccc3CC5)C2)CC1.Cl [No. 5, 1,2,3,4,8,9-hexahydro-3-[(1-methylcyclopropyl)methyl]pyrido[4',3':2,3]indolo[1,7-ab][1]benzazepine hydrochloride] | – | – | – | – | – | minimal effective dose (locomotor activity): 10 to 30 mg/kg; ED50 [1]: 3 to 10 mg/kg; minimal effective dose (taming): 10 to 30 mg/kg; minimal effective dose [3]: 10 to 20 mg/kg; ED50 [2]: 10 to 30 mg/kg; ED50 [5]: 10 to 20 mg/kg
16 | Cl.c1ccc2c(c1)CCc1cccc3c4c(n-2c13)CCN(CC1CCC1)C4 [No. 6, 3-(cyclobutylmethyl)-1,2,3,4,8,9-hexahydropyrido[4',3':2,3]indolo[1,7-ab][1]benzazepine hydrochloride] | – | – | – | – | – | minimal effective dose (locomotor activity): 10 to 30 mg/kg; ED50 [1]: 20 mg/kg; minimal effective dose (taming): 1 to 3 mg/kg; minimal effective dose [3]: > 40 mg/kg; ED50 [2]: 6 mg/kg; ED50 [4]: 4 mg/kg; ED50 [5]: 20 mg/kg
17 | Cl.c1ccc2c(c1)CCc1cccc3c4c(n-2c13)CCN(CC1CCCC1)C4 [No. 7, 3-(cyclopentylmethyl)-1,2,3,4,8,9-hexahydropyrido[4',3':2,3]indolo[1,7-ab][1]benzazepine hydrochloride] | – | – | – | – | – | minimal effective dose (locomotor activity): 3 to 10 mg/kg; ED50 [1]: 2 mg/kg; minimal effective dose (taming): 1 to 3 mg/kg; minimal effective dose [3]: > 40 mg/kg; ED50 [2]: 20 mg/kg; ED50 [4]: 30 mg/kg; ED50 [5]: 6 mg/kg
18 | Cl.c1ccc2c(c1)CCc1cccc3c4c(n-2c13)CCN(CC1CCCCC1)C4 [No. 8, 3-(cyclohexylmethyl)-1,2,3,4,8,9-hexahydropyrido[4',3':2,3]indolo[1,7-ab][1]benzazepine hydrochloride] | – | – | – | – | – | minimal effective dose (locomotor activity): 3 to 10 mg/kg; ED50 [1]: 2 mg/kg; minimal effective dose (taming): 1 to 3 mg/kg; minimal effective dose [3]: > 40 mg/kg; ED50 [2]: 20 mg/kg; ED50 [4]: 30 mg/kg; ED50 [5]: 10 mg/kg
19 | C#CCN1CCc2c(c3cccc4c3n2-c2ccccc2CC4)C1.Cl [No. 19, 1,2,3,4,8,9-hexahydro-3-(2-propynyl)pyrido[4',3':2,3]indolo[1,7-ab][1]benzazepine hydrochloride] | – | – | – | – | – | minimal effective dose (locomotor activity): 10 to 30 mg/kg; ED50 [1]: 30 to 100 mg/kg; ED50 [2]: 20 mg/kg
20 | CCCC(C)(COC(N)=O)COC(N)=O [meprobamate, reference compound] | – | – | – | – | – | decreased fear in the test animals, in words ([3]; rats cross to obtain food despite earlier shock, dose-related): apparent decreased fear in the test animals
